From publication PMC6943726, “Discovery of 8-Amino-Substituted 2-Phenyl-2,7-Naphthyridinone Derivatives as New c-Kit/VEGFR-2 Kinase Inhibitors” (Molecules, 2019)

Columns and labels:
Format in all cases: biochemical
VEGFR-2 = biological target: T1, VEGFR-2 (Homo sapiens, UniProt P35968); assay: HTRF enzyme assay with recombinant VEGFR-2 kinase domain; details: for IC50: purified recombinant VEGFR-2 kinase domain, HTRF, read-out: Inhibitory Activity, IC50, VEGFR-2; for VEGFR-2 potency, fold more potent than compound 3: ratio of IC50 values vs compound 3
T1 construct: was evaluated using an enzyme assay with a recombinant kinase domain; purchased Invitrogen (Carlsbad, CA, US)
T1 sequence (P35968 834-1162 limits assumed): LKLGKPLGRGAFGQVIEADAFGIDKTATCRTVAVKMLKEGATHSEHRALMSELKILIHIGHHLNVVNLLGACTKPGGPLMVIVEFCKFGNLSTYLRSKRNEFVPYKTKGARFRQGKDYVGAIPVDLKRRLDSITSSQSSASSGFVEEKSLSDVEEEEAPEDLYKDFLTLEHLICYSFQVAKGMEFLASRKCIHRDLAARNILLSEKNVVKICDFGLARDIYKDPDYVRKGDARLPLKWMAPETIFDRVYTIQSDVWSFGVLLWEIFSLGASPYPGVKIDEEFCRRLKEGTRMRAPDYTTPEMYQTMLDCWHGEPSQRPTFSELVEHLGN
Method: (§1) The ability of the synthesized compounds to inhibit MET, c-Kit, and VEGFR-2 activities was evaluated using an enzyme assay with a recombinant kinase domain [29]. Based on the structure activity relationship (SAR) of MET inhibitors, we proposed that the removal of the key diaryl ether fragments in compound 3 would result in a loss of MET activity.
(§2) The ability of compounds to inhibit the activity of three kinases (MET, c-Kit, and VEGFR-2) was tested in vitro [30]. Enzyme assays were run in homogeneous time-resolved fluorescence (HTRF) format in 384-well microtiter plates using purified kinases purchased from Invitrogen (Carlsbad, CA, US). The HTRF KinEASE TK kit (contains substrate-biotin, antibody-cryptate, streptavidin-XL665, 5×enzymatic buffer, and detection buffer) was purchased from Cisbio (Codolet, France), and the kinase assays were performed according to the manufacturer’s instructions. After the kinases and the compounds incubated at 25~30 °C for 5 min, the reactions were initiated by the addition of 2 μL of mixed substrate solution (mixed solution of ATP (Sigma, Shanghai, China) and substrate-biotin). The final concentrations of kinases were at EC80 and the total reaction volume was 8 μL. Plates were incubated at 30 °C for 30~60 min, then the reactions were quenched by the addition 8 μL mixed detection solution (mixed solution of antibody-cryptate and streptavidin-XL665 in detection buffer). The fluorescence excitation wavelength was […]. The fluorescence at 665 nm (acceptor emission wavelength) and 620 nm (donor emission wavelength) was measured with a PHERAstar FS plate reader (BMG, LABTECH, Ortenberg, Germany) using a time delay of 50 μs. All kinase assays were conducted using ATP concentrations below the enzyme Kmapp and kinase-specific biotinylated substrate peptides.
(§3) The data for dose responses were plotted as percentage of inhibition calculated with the data reduction formula 100 × [1 − (U1 − C2)/(C1 − C2)] versus concentration of compound, where U is the emission ratio of 665 nm and 620 nm of test sample, C1 is the average value obtained for solvent control (2% DMSO), and C2 is the average value obtained for no reaction control (no kinase sample). Inhibition curves were generated by plotting percentage of control activity versus log10 of the concentration of each […]. The IC50 values were calculated by nonlinear regression with Graphpad Prism 5 (GraphPad Software, San Diego, CA).

c-Kit = biological target: T2, c-Kit (Homo sapiens, UniProt P10721); assay: HTRF enzyme assay with recombinant c-Kit kinase domain; details: for IC50: purified recombinant c-Kit kinase domain, HTRF, read-out: Inhibitory Activity, IC50, c-Kit
T2 construct: was evaluated using an enzyme assay with a recombinant kinase domain; purchased Invitrogen (Carlsbad, CA, US)
T2 sequence (P10721 589-937 limits assumed): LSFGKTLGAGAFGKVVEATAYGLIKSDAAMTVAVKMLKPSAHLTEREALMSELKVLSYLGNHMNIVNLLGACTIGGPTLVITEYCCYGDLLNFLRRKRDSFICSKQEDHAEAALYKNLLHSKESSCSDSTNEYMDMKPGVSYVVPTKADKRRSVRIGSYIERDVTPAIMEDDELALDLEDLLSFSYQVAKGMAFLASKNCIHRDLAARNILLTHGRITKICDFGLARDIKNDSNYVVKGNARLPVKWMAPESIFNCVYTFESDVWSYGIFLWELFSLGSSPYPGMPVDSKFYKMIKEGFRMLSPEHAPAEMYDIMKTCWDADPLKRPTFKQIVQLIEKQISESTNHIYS
Method: as §1, §2, §3

MET = biological target: T3, MET (Homo sapiens, UniProt P08581); assay: HTRF enzyme assay with recombinant MET kinase domain; details: purified recombinant MET kinase domain, read-out: Inhibitory Activity, IC50, MET
T3 construct: was evaluated using an enzyme assay with a recombinant kinase domain; purchased Invitrogen (Carlsbad, CA, US)
T3 sequence (P08581 1078-1345 limits assumed): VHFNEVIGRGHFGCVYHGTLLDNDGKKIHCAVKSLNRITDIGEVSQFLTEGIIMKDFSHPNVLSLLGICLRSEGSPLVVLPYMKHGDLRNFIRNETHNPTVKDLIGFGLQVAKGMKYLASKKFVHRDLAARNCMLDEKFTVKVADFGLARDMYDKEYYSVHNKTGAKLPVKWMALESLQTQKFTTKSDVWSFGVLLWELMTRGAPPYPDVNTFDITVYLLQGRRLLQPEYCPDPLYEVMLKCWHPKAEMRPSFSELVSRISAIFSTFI
Method: as §1, §2, §3

[1] = ratio of IC50 values vs compound 3

Structure (SMILES): Cc1cc2ccnc(NCc3ccncc3)c2c(=O)n1-c1ccc(OC(F)(F)F)cc1 [Compound 10o, 3-methyl-8-((pyridin-4-ylmethyl)amino)-2-(4-(trifluoromethoxy)phenyl)-2,7-naphthyridin-1(2H)-one]
- IC50 (VEGFR-2): 0.538 µM
- IC50 (c-Kit): > 5 µM
- IC50 (MET): > 5 µM

Structure (SMILES): O=c1c2c(Nc3c(Cl)cccc3Cl)nccc2ccn1-c1ccc(F)cc1 [Compound 9c, 8-((2,6-dichlorophenyl)amino)-2-(4-fluorophenyl)-2,7-naphthyridin-1(2H)-one]
- IC50 (VEGFR-2): 0.691 µM
- IC50 (c-Kit): > 5 µM
- IC50 (MET): > 5 µM

Structure (SMILES): Cc1cc2ccnc(NCc3ccnc4ccccc34)c2c(=O)n1-c1ccc(OC(F)(F)F)cc1 [Compound 10r, 3-methyl-8-((quinolin-4-ylmethyl)amino)-2-(4-(trifluoromethoxy)phenyl)-2,7-naphthyridin-1(2H)-one]
- IC50 (VEGFR-2): 0.0317 µM
- VEGFR-2 potency, fold more potent than compound 3 (VEGFR-2): 5.0–8.8 fold
- c-Kit inhibitory activity (in words) (c-Kit): slightly stronger c-Kit inhibitory activity than compound 3
- c-Kit potency relative to compound 9g (c-Kit; compared with 9g): five-times more potent than compound 9g
- IC50 (c-Kit): 0.169 µM
- IC50 (MET): > 5 µM

Structure (SMILES): Cc1cc2ccnc(Nc3cccnc3)c2c(=O)n1-c1ccc(F)cc1 [Compound 10a, 2-(4-fluorophenyl)-3-methyl-8-(pyridin-3-ylamino)-2,7-naphthyridin-1(2H)-one]
- IC50 (VEGFR-2): > 5 µM
- IC50 (c-Kit): > 5 µM
- IC50 (MET): > 5 µM

Structure (SMILES): Cc1cc2ccnc(Nc3cccnc3)c2c(=O)n1-c1ccc(Cl)cc1 [Compound 10i, 2-(4-chlorophenyl)-3-methyl-8-(pyridin-3-ylamino)-2,7-naphthyridin-1(2H)-one]
- IC50 (VEGFR-2): > 5 µM
- IC50 (c-Kit): > 5 µM
- IC50 (MET): > 5 µM

Structure (SMILES): Cc1cc2ccnc(Nc3cccnc3)c2c(=O)n1-c1ccccc1 [Compound 10e, 3-methyl-2-phenyl-8-(pyridin-3-ylamino)-2,7-naphthyridin-1(2H)-one]
- IC50 (VEGFR-2): > 5 µM
- IC50 (c-Kit): > 5 µM
- IC50 (MET): > 5 µM

Structure (SMILES): Cc1cc2ccnc(NCc3ccco3)c2c(=O)n1-c1ccc(OC(F)(F)F)cc1 [Compound 10p, 8-((furan-2-ylmethyl)amino)-3-methyl-2-(4-(trifluoromethoxy)phenyl)-2,7-naphthyridin-1(2H)-one]
- IC50 (VEGFR-2): > 5 µM
- IC50 (c-Kit): > 5 µM
- IC50 (MET): > 5 µM

Structure (SMILES): Cc1cc2ccnc(NCc3ccncc3)c2c(=O)n1-c1ccccc1 [Compound 10g, 3-methyl-2-phenyl-8-((pyridin-4-ylmethyl)amino)-2,7-naphthyridin-1(2H)-one]
- IC50 (VEGFR-2): > 5 µM
- IC50 (c-Kit): > 5 µM
- IC50 (MET): > 5 µM

Structure (SMILES): O=c1c2c(NCc3cccc4ccccc34)nccc2ccn1-c1ccc(F)cc1 [Compound 9j, 2-(4-fluorophenyl)-8-((naphthalen-1-ylmethyl)amino)-2,7-naphthyridin-1(2H)-one]
- IC50 (VEGFR-2): > 5 µM
- IC50 (c-Kit): > 5 µM
- IC50 (MET): > 5 µM

Structure (SMILES): O=c1c2c(Nc3ccccc3)nccc2ccn1-c1ccc(F)cc1 [Compound 9a, 2-(4-fluorophenyl)-8-(phenylamino)-2,7-naphthyridin-1(2H)-one]
- IC50 (VEGFR-2): > 5 µM
- IC50 (c-Kit): > 5 µM
- IC50 (MET): > 5 µM

Structure (SMILES): O=c1c2c(NCc3cccnc3)nccc2ccn1-c1ccc(F)cc1 [Compound 9h, 2-(4-fluorophenyl)-8-((pyridin-3-ylmethyl)amino)-2,7-naphthyridin-1(2H)-one]
- IC50 (VEGFR-2): > 5 µM
- IC50 (c-Kit): > 5 µM
- IC50 (MET): > 5 µM

Structure (SMILES): Cc1cc2ccnc(NCc3cccnc3)c2c(=O)n1-c1ccc(OC(F)(F)F)cc1 [Compound 10n, 3-methyl-8-((pyridin-3-ylmethyl)amino)-2-(4-(trifluoromethoxy)phenyl)-2,7-naphthyridin-1(2H)-one]
- IC50 (VEGFR-2): > 5 µM
- IC50 (c-Kit): > 5 µM
- IC50 (MET): > 5 µM

Structure (SMILES): O=c1c2c(Nc3cccnc3)nccc2ccn1-c1ccc(F)cc1 [Compound 9d, 2-(4-fluorophenyl)-8-(pyridin-3-ylamino)-2,7-naphthyridin-1(2H)-one]
- IC50 (VEGFR-2): > 5 µM
- IC50 (c-Kit): > 5 µM
- IC50 (MET): > 5 µM

Structure (SMILES): Nc1nccc(Oc2ccc(Nc3nccc4ccn(-c5ccc(F)cc5)c(=O)c34)cc2F)c1Cl [Compound 3, reference compound]
- IC50 (VEGFR-2): 0.28 µM
- IC50 (c-Kit): 0.33 µM
- IC50 (MET): 0.0099 µM

Structure (SMILES): O=c1c2c(Nc3ccc4ccncc4c3)nccc2ccn1-c1ccc(F)cc1 [Compound 9e, 2-(4-fluorophenyl)-8-(isoquinolin-7-ylamino)-2,7-naphthyridin-1(2H)-one]
- IC50 (VEGFR-2): > 5 µM
- IC50 (c-Kit): > 5 µM
- IC50 (MET): > 5 µM

Structure (SMILES): Cc1cc2ccnc(NCc3ccnc4ccccc34)c2c(=O)n1-c1ccc(F)cc1F [Compound 10s, 2-(2,4-difluorophenyl)-3-methyl-8-((quinolin-4-ylmethyl)amino)-2,7-naphthyridin-1(2H)-one]
- IC50 (VEGFR-2): 0.887 µM
- IC50 (c-Kit): > 5 µM
- IC50 (MET): > 5 µM

Structure (SMILES): O=c1c2c(NCc3ccnc4ccccc34)nccc2ccn1-c1ccc(F)cc1 [Compound 9k, 2-(4-fluorophenyl)-8-((quinolin-4-ylmethyl)amino)-2,7-naphthyridin-1(2H)-one]
- IC50 (VEGFR-2): 0.238 µM
- IC50 (c-Kit): 0.0085 µM
- c-Kit potency, fold more potent than compound 3 (c-Kit; [1]): 38.8 fold
- IC50 (MET): > 5 µM

Structure (SMILES): Cc1cc2ccnc(NCc3ccnc4ccccc34)c2c(=O)n1-c1ccc(Cl)cc1 [Compound 10l, 2-(4-chlorophenyl)-3-methyl-8-((quinolin-4-ylmethyl)amino)-2,7-naphthyridin-1(2H)-one]
- IC50 (VEGFR-2): 0.0565 µM
- VEGFR-2 potency, fold more potent than compound 3 (VEGFR-2): 5.0–8.8 fold
- c-Kit inhibitory activity (in words) (c-Kit): slightly stronger c-Kit inhibitory activity than compound 3
- IC50 (c-Kit): 0.107 µM
- IC50 (MET): > 5 µM

Structure (SMILES): O=c1c2c(NCc3ccncc3)nccc2ccn1-c1ccc(F)cc1 [Compound 9g, 2-(4-fluorophenyl)-8-((pyridin-4-ylmethyl)amino)-2,7-naphthyridin-1(2H)-one]
- IC50 (VEGFR-2): 0.601 µM
- IC50 (c-Kit): 0.832 µM
- c-Kit potency, fold less potent than compound 3 (c-Kit; [1]): 2.5 fold
- IC50 (MET): > 5 µM

Structure (SMILES): O=c1c2c(NCc3ccccc3)nccc2ccn1-c1ccc(F)cc1 [Compound 9f, 8-(benzylamino)-2-(4-fluorophenyl)-2,7-naphthyridin-1(2H)-one]
- IC50 (VEGFR-2): > 5 µM
- IC50 (c-Kit): > 5 µM
- IC50 (MET): > 5 µM

Structure (SMILES): Cc1cc2ccnc(NCc3ccncc3)c2c(=O)n1-c1ccc(Cl)cc1 [Compound 10k, 2-(4-chlorophenyl)-3-methyl-8-((pyridin-4-ylmethyl)amino)-2,7-naphthyridin-1(2H)-one]
- IC50 (VEGFR-2): 0.263 µM
- IC50 (c-Kit): > 5 µM
- IC50 (MET): > 5 µM

Structure (SMILES): Cc1cc2ccnc(NCc3cccnc3)c2c(=O)n1-c1ccc(Cl)cc1 [Compound 10j, 2-(4-chlorophenyl)-3-methyl-8-((pyridin-3-ylmethyl)amino)-2,7-naphthyridin-1(2H)-one]
- IC50 (VEGFR-2): > 5 µM
- IC50 (c-Kit): > 5 µM
- IC50 (MET): > 5 µM

Structure (SMILES): Cc1cc2ccnc(NCc3cccnc3)c2c(=O)n1-c1ccccc1 [Compound 10f, 3-methyl-2-phenyl-8-((pyridin-3-ylmethyl)amino)-2,7-naphthyridin-1(2H)-one]
- IC50 (VEGFR-2): > 5 µM
- IC50 (c-Kit): > 5 µM
- IC50 (MET): > 5 µM

Structure (SMILES): Cc1cc2ccnc(NCc3cccnc3)c2c(=O)n1-c1ccc(F)cc1 [Compound 10b, 2-(4-fluorophenyl)-3-methyl-8-((pyridin-3-ylmethyl)amino)-2,7-naphthyridin-1(2H)-one]
- IC50 (VEGFR-2): > 5 µM
- IC50 (c-Kit): > 5 µM
- IC50 (MET): > 5 µM

Structure (SMILES): Cc1cccc(C)c1Nc1nccc2ccn(-c3ccc(F)cc3)c(=O)c12 [Compound 9b, 8-((2,6-dimethylphenyl)amino)-2-(4-fluorophenyl)-2,7-naphthyridin-1(2H)-one]
- IC50 (VEGFR-2): > 5 µM
- IC50 (c-Kit): > 5 µM
- IC50 (MET): > 5 µM

Structure (SMILES): Cc1cc2ccnc(Nc3cccnc3)c2c(=O)n1-c1ccc(OC(F)(F)F)cc1 [Compound 10m, 3-methyl-8-(pyridin-3-ylamino)-2-(4-(trifluoromethoxy)phenyl)-2,7-naphthyridin-1(2H)-one]
- IC50 (VEGFR-2): > 5 µM
- IC50 (c-Kit): > 5 µM
- IC50 (MET): > 5 µM

Structure (SMILES): Cc1cc2ccnc(NCc3ccncc3)c2c(=O)n1-c1ccc(F)cc1 [Compound 10c, 2-(4-fluorophenyl)-3-methyl-8-((pyridin-4-ylmethyl)amino)-2,7-naphthyridin-1(2H)-one]
- IC50 (VEGFR-2): > 5 µM
- IC50 (c-Kit): > 5 µM
- IC50 (MET): > 5 µM
